# Calls of active or inactive are those of the source. The rule behind the calls is not given here. Numbered stars: 1 amine (or outer) side, 2 acyl side, 3 side chain; on linkers, the order of the positions; unused ones are H or OH. Bridge positions count the residues as written; N and C are the ends. Square brackets hold non-standard residues; d marks the D form. Peptide text beside a SMILES is read from it. Nle(6-ylidene) = O=C([C@H](CCCC=[*:3])N[*:1])[*:2]; Phe(4-Br) = N[C@@H](Cc1ccc(Br)cc1)C(=O)O; Phe(4-Cl) = N[C@@H](Cc1ccc(Cl)cc1)C(=O)O; Phe(4-F) = N[C@@H](Cc1ccc(F)cc1)C(=O)O; Phe(4-I) = N[C@@H](Cc1ccc(I)cc1)C(=O)O
# Columns and labels:
# MCF7 [1] = assay: Cytotoxicity against human MCF7 cells assessed as reduction in cell viability incubated for 24 hrs by MTT assay; assay type: functional, cell-based; details: MCF7, 24 h
# Tubulin (Homo sapiens) [2] = target: T1, Tubulin (Homo sapiens) (UniProt P68371+Q9H4B7+P0DPH7+P68366+Q13509+Q71U36+P04350+Q3ZCM7+P07437+P68363+Q9BQE3+Q6PEY2+Q13885+Q9BVA1+Q9BUF5); assay: Binding affinity to tubulin (unknown origin) assessed as association constant by SPR analysis; assay type: protein-complex assay
# Tubulin [3] = assay: Binding affinity to tubulin (unknown origin) assessed as binding constant by SPR analysis; assay type: protein-complex assay, Homo sapiens
# Tubulin [4] = assay: Binding affinity to tubulin (unknown origin) assessed as binding constant by ITC analysis; assay type: protein-complex assay, Homo sapiens
# Tubulin (Homo sapiens) [5] = target: T1, Tubulin (Homo sapiens); assay: Inhibition of tubulin polymerization (unknown origin) at 10 uM by turbidity assay; assay type: protein-complex assay
# Tubulin (Homo sapiens) [6] = target: T1, Tubulin (Homo sapiens); assay: Inhibition of tubulin polymerization (unknown origin) at 10 uM by DAPI staining based assay; assay type: protein-complex assay
# Tubulin [7] = assay: Binding affinity to tubulin (unknown origin) assessed as binding constant by tryptophan quenching analysis; assay type: protein-complex assay, Homo sapiens
# Tubulin (Homo sapiens) [8] = target: T1, Tubulin (Homo sapiens); assay: Binding affinity to microtubule in human MCF7 cells at 20 uM after 2 hrs by Hoechst 33258 staining based fluorescence microscopy analysis; assay type: cell-based
# Tubulin (Homo sapiens) [9] = target: T1, Tubulin (Homo sapiens); assay: Induction of microtubule depolymerization in human MCF7 cells; assay type: cell-based
# [10] = Drug uptake in human MCF7 cells at 4 uM incubated for 24 hrs by flow cytometry analysis; assay type: ADME, cell-based; details: mcf7, 24 h
# MCF7 [11] = assay: Drug uptake in human MCF7 cells at 4 uM incubated for 24 hrs by fluorescence microscopic analysis; assay type: functional, cell-based
# MCF7 [12] = assay: Induction of apoptosis in human MCF7 cells assessed as viable cells by annexin V FITC and propidium iodide staining based flow cytometry (reference value: 100 %); assay type: functional
# MCF7 [13] = assay: Induction of apoptosis in human MCF7 cells assessed as early apoptotic cells by annexin V FITC and propidium iodide staining based flow cytometry (reference value: 0 %); assay type: functional
# MCF7 [14] = assay: Induction of apoptosis in human MCF7 cells assessed as late apoptotic cells by annexin V FITC and propidium iodide staining based flow cytometry (reference value: 0 %); assay type: functional
# MCF7 [15] = assay: Induction of apoptosis in human MCF7 cells assessed as necrotic cells by annexin V FITC and propidium iodide staining based flow cytometry (reference value: 0 %); assay type: functional
# MCF7 [16] = assay: Induction of cell cycle arrest in human MCF7 cells assessed as accumulation of cells at G2/M phase; assay type: functional, cell-based
# MCF7 [17] = assay: Induction of apoptosis in human MCF7 cells assessed as upregulation of p53 protein expression by Western blot analysis; assay type: functional, cell-based
# MCF7 [18] = assay: Induction of apoptosis in human MCF7 cells assessed as upregulation of p21 protein expression by Western blot analysis; assay type: functional, cell-based
# MCF7 [19] = assay: Induction of apoptosis in human MCF7 cells assessed as upregulation of Mad2 protein expression by Western blot analysis; assay type: functional, cell-based
# MCF7 [20] = assay: Induction of apoptosis in human MCF7 cells assessed as upregulation of BubR1 protein expression by Western blot analysis; assay type: functional, cell-based
# MCF7 [21] = assay: Antitumor activity in human MCF7 cells cultured as 3D spheroids assessed as decrease in spheroid volume at 4 uM measured up to 7 days by inverted microscopic analysis; assay type: functional, cell-based; details: time <= 7.0 day
# [22] = Metabolic stability in human plasma at 200 uM incubated for 24 hrs by MALDI-MS analysis; assay type: ADME, cell-free
# B16-F10 [23] = assay: Antitumor activity against mouse B16-F10 cells implanted in C57BL/6J mouse assessed as reduction in tumor size at 5 mg/kg, ip administered for 14 days by caliper method; assay type: functional, organism-based; details: time 14.0 day
# [24] = Toxicity in C57BL/6J mouse implanted with B16F10 cells assessed as change in body weight at 5 mg/kg, ip administered for 14 days; assay type: organism-based, B16-F10; details: in vivo, 336 h, time 14 day
# B16-F10 [25] = assay: Antitumor activity against mouse B16F10 cells implanted in C57BL/6J mouse assessed as tumor cell damage at 5 mg/kg, ip administered for 14 days by caliper method; assay type: functional, organism-based; details: time 14.0 day
# B16-F10 [26] = assay: Antitumor activity against mouse B16F10 cells implanted in C57BL/6J mouse assessed as tumor muscle damage at 5 mg/kg, ip administered for 14 days by caliper method; assay type: functional, organism-based; details: time 14.0 day
# B16-F10 [27] = assay: Antitumor activity against mouse B16F10 cells implanted in C57BL/6J mouse assessed as blood vessels damage at 5 mg/kg, ip administered for 14 days by caliper method; assay type: functional, organism-based; details: time 14.0 day
Structure (SMILES),Ka (Tubulin (Homo sapiens) [2]),Kd (Tubulin [3]) [µM],Ka (Tubulin [4]) [M⁻¹],Activity (Tubulin (Homo sapiens) [9]),Drug uptake [10],Stability [22],IC50 (MCF7 [1]) [µM],Activity (MCF7 [11]),Activity (MCF7 [12]) [%],Activity (MCF7 [13]) [%],Activity (MCF7 [14]) [%],Activity (MCF7 [15]) [%],Activity (MCF7 [16]),Activity (MCF7 [17]),Activity (MCF7 [18]),Activity (MCF7 [19]),Activity (MCF7 [20]),further results
CC(C)C[C@H](NC(=O)[C@H](Cc1ccccc1)NC(=O)[C@H](C)NC(=O)[C@H](CCCCN)NC(=O)[C@H](CCCNC(=N)N)NC(=O)[C@H](CCCNC(=N)N)NC(=O)[C@@H](N)Cc1ccccc1)C(=O)N[C@@H](Cc1c[nH]cn1)C(=O)N[C@@H](Cc1c[nH]c2ccccc12)C(=O)N[C@@H](Cc1ccc(O)cc1)C(=O)N[C@H](C(=O)NCC(=O)O)[C@@H](C)O (H-FRRKAFLHWYTG-OH),–,–,–,–,–,Unstable,272,–,–,–,–,–,–,–,–,–,–,–
CC(=O)N[C@@H](Cc1ccccc1)C(=O)N[C@@H](CCCNC(=N)N)C(=O)N[C@@H](CCCNC(=N)N)C(=O)N[C@@H](CCCCN)C(=O)N[C@@H](C)C(=O)N[C@@H](Cc1ccc(I)cc1)C(=O)N[C@H]1CCC/C=C\CCC[C@@H](C(=O)NCC(=O)O)NC(=O)[C@H](Cc2ccc(O)cc2)NC(=O)[C@H](Cc2c[nH]c3ccccc23)NC(=O)[C@H](Cc2cnc[nH]2)NC1=O (Ac-FRRKA[Phe(4-I)][Nle(6-ylidene)]HWY[Nle(6-ylidene)]G-OH; staple (Z) 7-11),–,4.1,–,–,–,–,52.3,–,–,–,–,–,–,–,–,–,–,–
C[C@H](NC(=O)[C@H](CCCCN)NC(=O)[C@H](CCCNC(=N)N)NC(=O)[C@H](CCCNC(=N)N)NC(=O)[C@@H](N)Cc1ccccc1)C(=O)N[C@@H](Cc1ccccc1)C(=O)N[C@H]1CCC/C=C\CCC[C@@H](C(=O)NCC(=O)O)NC(=O)[C@H](Cc2ccc(O)cc2)NC(=O)[C@H](Cc2c[nH]c3ccccc23)NC(=O)[C@H](Cc2c[nH]cn2)NC1=O (H-FRRKAF[Nle(6-ylidene)]HWY[Nle(6-ylidene)]G-OH; staple (Z) 7-11),1.43 10^4/M/s,7,10500,Active,Active,Stable,37.2,Active,31.8,0.5,24.2,43.6,Active,Active,Active,Active,Active,–

# More lines, main results first:
Ka (Tubulin (Homo sapiens) [2]),Kd (Tubulin [3]) [µM],Ka (Tubulin [4]) [M⁻¹],Activity (Tubulin (Homo sapiens) [9]),Drug uptake [10],Stability [22],Structure (SMILES),IC50 (MCF7 [1]) [µM],Activity (MCF7 [11]),Activity (MCF7 [12]) [%],Activity (MCF7 [13]) [%],Activity (MCF7 [14]) [%],Activity (MCF7 [15]) [%],Activity (MCF7 [16]),Activity (MCF7 [17]),Activity (MCF7 [18]),Activity (MCF7 [19]),Activity (MCF7 [20]),further results
2.14 10^4/M/s,3.6,45200,Active,Active,Stable,CC(=O)N[C@@H](Cc1ccccc1)C(=O)N[C@@H](CCCNC(=N)N)C(=O)N[C@@H](CCCNC(=N)N)C(=O)N[C@@H](CCCCN)C(=O)N[C@@H](C)C(=O)N[C@@H](Cc1ccc(F)cc1)C(=O)N[C@H]1CCC/C=C\CCC[C@@H](C(=O)NCC(=O)O)NC(=O)[C@H](Cc2ccc(O)cc2)NC(=O)[C@H](Cc2c[nH]c3ccccc23)NC(=O)[C@H](Cc2c[nH]cn2)NC1=O (Ac-FRRKA[Phe(4-F)][Nle(6-ylidene)]HWY[Nle(6-ylidene)]G-OH; staple (Z) 7-11),3.71,Active,12.2,23.5,58,6.3,Active,Active,Active,Active,Active,inhibition (Tubulin (Homo sapiens) [5]): Active; inhibition (Tubulin (Homo sapiens) [6]): Active; Ka (Tubulin [7]): 46300 M⁻¹; Activity (Tubulin (Homo sapiens) [8]): Active; Activity (MCF7 [21]): Active; Activity (B16-F10 [23]): Active; Activity [24]: Non-Toxic; Activity (B16-F10 [25]): Active; Activity (B16-F10 [26]): Active; Activity (B16-F10 [27]): Active
2.05 10^4/M/s,3.3,–,–,–,–,CC(=O)N[C@@H](Cc1ccccc1)C(=O)N[C@@H](CCCNC(=N)N)C(=O)N[C@@H](CCCNC(=N)N)C(=O)N[C@@H](CCCCN)C(=O)N[C@@H](C)C(=O)N[C@@H](Cc1ccc(Cl)cc1)C(=O)N[C@H]1CCC/C=C\CCC[C@@H](C(=O)NCC(=O)O)NC(=O)[C@H](Cc2ccc(O)cc2)NC(=O)[C@H](Cc2c[nH]c3ccccc23)NC(=O)[C@H](Cc2cnc[nH]2)NC1=O (Ac-FRRKA[Phe(4-Cl)][Nle(6-ylidene)]HWY[Nle(6-ylidene)]G-OH; staple (Z) 7-11),18.7,–,–,–,–,–,–,–,–,–,–,–
1.9 10^4/M/s,4,–,–,–,–,CC(=O)N[C@@H](Cc1ccccc1)C(=O)N[C@@H](CCCNC(=N)N)C(=O)N[C@@H](CCCNC(=N)N)C(=O)N[C@@H](CCCCN)C(=O)N[C@@H](C)C(=O)N[C@@H](Cc1ccc(Br)cc1)C(=O)N[C@H]1CCC/C=C\CCC[C@@H](C(=O)NCC(=O)O)NC(=O)[C@H](Cc2ccc(O)cc2)NC(=O)[C@H](Cc2c[nH]c3ccccc23)NC(=O)[C@H](Cc2cnc[nH]2)NC1=O (Ac-FRRKA[Phe(4-Br)][Nle(6-ylidene)]HWY[Nle(6-ylidene)]G-OH; staple (Z) 7-11),33.8,–,–,–,–,–,–,–,–,–,–,–

# — ChEMBL document CHEMBL5108073, “Evolution of Potential Antimitotic Stapled Peptides from Multiple Helical Peptide Stretches of the Tubulin Heterodimer Interface: Helix-Mimicking Stapled Peptide Tubulin Inhibitors” (J Med Chem, 2022)
